Data: patent US20160159808A1, “HETEROCYCLIC COMPOUND” (TAKEDA PHARMACEUTICAL COMPANY LIMITED, priority 2013, published 2016)

Tests used:
human PDE2A3 enzyme = target: T1, human PDE2A3 enzyme (Homo sapiens, UniProt O00408); experiment: PDE Enzyme Inhibitory Assay (SPA, [3H]cGMP substrate); format: biochemical; details: compound 1 μM; [3H]cGMP 77 nM; 60 min at room temperature; read-out: inhibitory rate (%) (1 μM)
T1 construct: Human PDE2A3 full-length gene was transduced into Sf9; His-tag; made in house; host or cells: Sf9 insect cells
T1 sequence (O00408 whole entry): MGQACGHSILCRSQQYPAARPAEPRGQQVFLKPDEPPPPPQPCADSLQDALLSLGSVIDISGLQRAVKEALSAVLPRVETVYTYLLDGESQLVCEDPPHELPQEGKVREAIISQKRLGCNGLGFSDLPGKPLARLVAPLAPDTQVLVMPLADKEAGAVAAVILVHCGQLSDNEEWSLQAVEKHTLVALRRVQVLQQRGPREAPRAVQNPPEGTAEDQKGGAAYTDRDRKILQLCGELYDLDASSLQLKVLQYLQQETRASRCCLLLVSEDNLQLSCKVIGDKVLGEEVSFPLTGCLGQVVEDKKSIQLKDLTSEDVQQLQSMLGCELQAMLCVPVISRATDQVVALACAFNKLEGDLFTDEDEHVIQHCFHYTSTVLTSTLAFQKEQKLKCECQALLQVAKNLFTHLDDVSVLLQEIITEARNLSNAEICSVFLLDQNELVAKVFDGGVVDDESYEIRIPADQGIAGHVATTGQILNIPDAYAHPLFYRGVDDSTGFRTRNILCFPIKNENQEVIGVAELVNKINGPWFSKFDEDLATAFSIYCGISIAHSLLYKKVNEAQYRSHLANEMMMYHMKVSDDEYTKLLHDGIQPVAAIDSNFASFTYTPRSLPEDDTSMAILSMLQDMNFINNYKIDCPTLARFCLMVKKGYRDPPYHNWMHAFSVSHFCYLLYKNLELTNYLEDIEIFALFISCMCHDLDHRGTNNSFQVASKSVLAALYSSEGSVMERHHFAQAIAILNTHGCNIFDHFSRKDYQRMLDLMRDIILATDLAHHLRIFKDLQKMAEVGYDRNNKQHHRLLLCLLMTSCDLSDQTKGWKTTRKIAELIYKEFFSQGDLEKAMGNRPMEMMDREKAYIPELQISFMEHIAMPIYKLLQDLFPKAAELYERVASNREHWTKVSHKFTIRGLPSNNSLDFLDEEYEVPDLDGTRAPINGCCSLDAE
Description: PDE Enzyme Inhibitory Assay Human PDE2A3 full-length gene was transduced into Sf9, and human PDE2A3 enzyme was purified by His-tag affinity column and gel filtration. The enzyme was stored at −70° C. until use. PDE activity was measured using a SPA (Scintillation Proximity Assay) (GE Healthcare). To evaluate the inhibitory activity of the compound, 10 μl of serial diluted compounds were reacted with 20 μl of PDE enzyme in assay buffer (50 mM HEPES-NaOH, 8.3 mM MgCl2, 1.7 mM EGTA, 0.1% BSA (pH 7.4)) for 30 min. at room temperature. Final concentration of DMSO in the reaction solution was 1 percent. Compounds were tested in duplicate in 96-well half-area plates (Corning) or 384-well OptiPlate (PerkinElmer). To start the reaction, 10 μl of substrate [^3H] cGMP (final concentration 77 nM, PerkinElmer) was added to a total volume of 40 μl. After reaction for 60 min at room temperature, 20 μl of 20 mg/mL yttrium SPA beads containing zinc sulfate was added to terminate the PDE reaction. After being settled for further 1 hour, the assay plates were counted in a scintillation counter (PerkinElmer) to allow calculation of inhibition rate. Inhibition rate was calculated on the basis of 0% control wells with enzyme and DMSO, and 100% control wells without enzyme.

Male C57BL/6 mice = experiment: Contextual fear conditioning test, MK-801-induced deficits; format: in vivo; details: 30 mg/kg p.o. 60 min before test, MK-801 (maleate) 0.08 mg/kg s.c. 30 min before test, n=10, FIG. 1
Description: Improvement effect on MK-801 ((5S,10R)-5-methyl-10,11-dihydro-5H-5,10-epiminodibenzo[a,d][7]annulene)-induced disorder in contextual fear conditioning test.
Male C57BL/6 mice were purchased from CLEA Japan, Inc. They were used for an experiment after a habituation period of at least one week after carrying them in the animal experimental facility. They were bred in the animal experimental facility with environment in which 12-hours light-dark cycle was performed, humidity and temperature were controlled, and free water drinking and feeding were allowed. Handling of experimental animals and experimental procedure of this study were approved by the Experimental Animal Ethics Committee of Takeda Pharmaceutical Company Limited.
A test compound was suspended in 0.5% methylcellulose solution at a dose of 30 mg/kg, and orally administered. MK-801 (maleate) (Sigma-Aldrich, St Louis, Mo.) was dissolved in saline at a dose of 0.08 mg/kg, and subcutaneously administered. All drugs were administered to mice at a dose of 10 mL/kg.
Contextual fear conditioning test is widely used as memory and learning test system depending on the hippocampus and amygdala. The improvement effect of test compounds on MK-801-induced deficits was investigated by contextual fear conditioning test. The test compounds and MK-801 (maleate) were administered 60 min and 30 min, respectively, before the test. 0.5% methylcellulose and saline were administered to the control groups 60 min and 30 min, respectively, before the test. 0.5% methylcellulose and MK-801 (maleate) were administered to the vehicle groups 60 min and 30 min, respectively, before the test. […] In the test session on day 2 of the experiment, mice were placed in the same chamber for 7 minutes, and freezing was measured during that period. The freezing was calculated as a percentage of freezing rates during measuring period with use of an automatic analysis software manufactured by the O'Hara & Co., Ltd. All data were shown as the mean+standard error (n=10). […]

inhibition at 1 µM (human PDE2A3 enzyme)	SMILES	improvement effect on MK-801-induced deficits in contextual fear conditioning test (freezing) (Male C57BL/6 mice)
100%	Cc1ncn(-c2nc3c(C(=O)N[C@@H](c4ccc(OC(F)(F)F)cc4)C(C)(C)O)cnn3cc2C)n1 [Example 161, N-((1S)-2-hydroxy-2-methyl-1-(4-(trifluoromethoxy)phenyl)propyl)-6-methyl-5-(3-methyl-1H-1,2,4-triazol-1-yl)pyrazolo[1,5-a]pyrimidine-3-carboxamide]	improvement effect on MK-801-induced deficits was shown
100%	CC1(C)CCN(c2ccn3ncc(C(=O)N[C@@H](c4ccc(OC(F)(F)F)cc4)C(C)(C)O)c3n2)C1=O [Example 135, 5-(3,3-dimethyl-2-oxopyrrolidin-1-yl)-N-((1S)-2-hydroxy-2-methyl-1-(4-(trifluoromethoxy)phenyl)propyl)pyrazolo[1,5-a]pyrimidine-3-carboxamide]	
99%	CC1(C)CN(c2ccn3ncc(C(=O)N[C@@H](c4ccc(OC(F)(F)F)cc4)C(C)(C)O)c3n2)CCO1 [Example 124, 5-(2,2-dimethylmorpholin-4-yl)-N-((1S)-2-hydroxy-2-methyl-1-(4-(trifluoromethoxy)phenyl)propyl)pyrazolo[1,5-a]pyrimidine-3-carboxamide]	
100%	CC(C)(O)[C@@H](NC(=O)c1cnn2ccc(-c3ccccc3C#N)nc12)c1ccc(OC(F)(F)F)c(F)c1 [Example 101, 5-(2-cyanophenyl)-N-((1S)-1-(3-fluoro-4-(trifluoromethoxy)phenyl)-2-hydroxy-2-methylpropyl) pyrazolo[1,5-a]pyrimidine-3-carboxamide]	
101%	Cc1cn(-c2ccn3ncc(C(=O)N[C@@H](c4ccc(OC(F)(F)F)cc4)C(C)(C)O)c3n2)cn1 [Example 115, N-((1S)-2-hydroxy-2-methyl-1-(4-(trifluoromethoxy)phenyl)propyl)-5-(4-methyl-1H-imidazol-1-yl)pyrazolo[1,5-a]pyrimidine-3-carboxamide]	
97%	CC(C)(O)[C@@H](NC(=O)c1ccc2cncc(-c3ccccc3)c2n1)c1ccc(OC(F)(F)F)cc1 [Example 164, N-((1S)-2-hydroxy-2-methyl-1-(4-(trifluoromethoxy)phenyl)propyl)-8-phenyl-1,6-naphthyridine-2-carboxamide]	
100%	COC[C@@H](NC(=O)c1cc(=O)[nH]c2cc(OC)cnc12)c1ccc(OC(F)(F)F)c(F)c1 [Example 152, N-((1S)-1-(3-fluoro-4-(trifluoromethoxy)phenyl)-2-methoxyethyl)-7-methoxy-2-oxo-1,2-dihydro-1,5-naphthyridine-4-carboxamide]	

Second part, the molecule before the results:

SMILES	inhibition at 1 µM (human PDE2A3 enzyme)	improvement effect on MK-801-induced deficits in contextual fear conditioning test (freezing) (Male C57BL/6 mice)
CC(C)(O)[C@@H](NC(=O)c1cnn2ccc(-c3ccccn3)nc12)c1ccc(OC(F)(F)F)cc1 [Example 72, N-((1S)-2-hydroxy-2-methyl-1-(4-(trifluoromethoxy)phenyl)propyl)-5-(pyridin-2-yl)pyrazolo[1,5-a]pyrimidine-3-carboxamide]	100%	
Cc1cn(-c2nc3c(C(=O)N[C@@H](c4ccc(OC(F)(F)F)cc4)C(C)(C)O)cnn3cc2C)nn1 [Example 80, N-((1S)-2-hydroxy-2-methyl-1-(4-(trifluoromethoxy)phenyl)propyl)-6-methyl-5-(4-methyl-1H-1,2,3-triazol-1-yl)pyrazolo[1,5-a]pyrimidine-3-carboxamide]	100%	improvement effect on MK-801-induced deficits was shown
Cc1cn2ncc(C(=O)N[C@@H](c3ccc(OC(F)(F)F)cc3)C(C)(C)O)c2nc1-n1cnc(C(F)(F)F)c1 [Example 79, N-((1S)-2-hydroxy-2-methyl-1-(4-(trifluoromethoxy)phenyl)propyl)-6-methyl-5-(4-(trifluoromethyl)-1H-imidazol-1-yl)pyrazolo[1,5-a]pyrimidine-3-carboxamide]	101%	
CC(C)(O)[C@@H](NC(=O)c1cnn2ccc(-c3cnn(C(F)F)c3)nc12)c1ccc(OC(F)(F)F)cc1 [Example 70, 5-(1-(difluoromethyl)-1H-pyrazol-4-yl)-N-((1S)-2-hydroxy-2-methyl-1-(4-(trifluoromethoxy)phenyl)propyl)pyrazolo[1,5-a]pyrimidine-3-carboxamide]	101%	
Cc1cn2ncc(C(=O)N[C@@H](c3ccc(OC(F)(F)F)cc3)C(C)(C)O)c2nc1-c1cnn(C(F)F)c1 [Example 83, 5-(1-(difluoromethyl)-1H-pyrazol-4-yl)-N-((1S)-2-hydroxy-2-methyl-1-(4-(trifluoromethoxy)phenyl)propyl)-6-methylpyrazolo[1,5-a]pyrimidine-3-carboxamide]	100%	
COC[C@@H](NC(=O)c1cc(=O)[nH]c2cc(C)cnc12)c1ccc(OC(F)(F)F)cc1 [Example 92, N-((1S)-2-methoxy-1-(4-(trifluoromethoxy)phenyl)ethyl)-7-methyl-2-oxo-1,2-dihydro-1,5-naphthyridine-4-carboxamide]	100%	
CCN(C)c1ccn2ncc(C(=O)NC(c3ccc(OC(F)(F)F)c(F)c3)C(C)(C)O)c2n1 (stereo not shown) [Example 29, 5-(ethyl(methyl)amino)-N-(1-(3-fluoro-4-(trifluoromethoxy)phenyl)-2-hydroxy-2-methylpropyl)pyrazolo[1,5-a]pyrimidine-3-carboxamide]	100%	
COC[C@@H](NC(=O)c1cnn2cc(C)cnc12)c1ccc(OC(F)(F)F)c(F)c1 [Example 12, N-((1S)-1-(3-fluoro-4-(trifluoromethoxy)phenyl)-2-methoxyethyl)-6-methylpyrazolo[1,5-a]pyrimidine-3-carboxamide]	99%	
Cn1cc(C(=O)N[C@@H](c2ccc(OC(F)(F)F)c(F)c2)C(C)(C)O)c2nc(C3CC3)cc(=O)n21 [Example 66, 5-cyclopropyl-N-((1S)-1-(3-fluoro-4-(trifluoromethoxy)phenyl)-2-hydroxy-2-methylpropyl)-1-methyl-7-oxo-1,7-dihydropyrazolo[1,5-a]pyrimidine-3-carboxamide]	98%	
Cn1cc(C(=O)N[C@@H](c2ccc(OC(F)(F)F)cc2)C(C)(C)O)c2nc(-c3ccccn3)cc(=O)n21 [Example 77, N-((1S)-2-hydroxy-2-methyl-1-(4-(trifluoromethoxy)phenyl)propyl)-1-methyl-7-oxo-5-(pyridin-2-yl)-1,7-dihydropyrazolo[1,5-a]pyrimidine-3-carboxamide]	100%	
COCC(NC(=O)c1cnn2ccc(N3CCOCC3)nc12)c1ccc(OC(F)(F)F)c(F)c1 (stereo not shown) [Example 38, N-(1-(3-fluoro-4-(trifluoromethoxy)phenyl)-2-methoxyethyl)-5-(morpholin-4-yl)pyrazolo[1,5-a]pyrimidine-3-carboxamide]	98%	
COCC(NC(=O)c1cc(=O)[nH]c2cccnc12)c1ccc(OC(F)(F)F)cc1 (stereo not shown) [Example 1, N-(2-methoxy-1-(4-(trifluoromethoxy)phenyl)ethyl)-2-oxo-1,2-dihydro-1,5-naphthyridine-4-carboxamide]	99%	
Cc1cn2ncc(C(=O)NC(c3ccc(OC(F)(F)F)c(F)c3)C(C)(C)O)c2nc1N1CCC1 (stereo not shown) [Example 59, 5-(azetidin-1-yl)-N-(1-(3-fluoro-4-(trifluoromethoxy)phenyl)-2-hydroxy-2-methylpropyl)-6-methylpyrazolo[1,5-a]pyrimidine-3-carboxamide]	101%	
